Reference: patent US11649218B2, “C-Abl tyrosine kinase inhibitory compound embodiments and methods of making and using the same” (The USA, as represented by the Secretary, Dept. of Health …, priority 2018, dated 2023)

The compounds below were run on Leukemia K562 cell (assay: Leukemia K562 cell proliferation/viability assay (CellTiterGlo, 48 hours)). Conditions: K562 cells.
Format: cell-based
Design: unit not given here
Procedure: C-Abl is encoded by the ABL1 gene (NCBI Gene ID NO. 25). […] Assays for determining if a small molecule inhibits c-Abl activity are known. Non-limiting examples include cell proliferation assays using cancer cells that are BCR-Abl positive and depend on BCR-Abl for growth, such as the leukemia cell line K562. […] In some embodiments described herein, compounds are tested for ability to reduce K562 cell proliferation in an HTS adapted assay which measures cell viability using the reagent CellTiterGlo after 48 hours treatment.

Point of comparison: COc1ccc(-c2ccc3c(c2)C(=O)Nc2cc(OC(F)(F)F)ccc2O3)cc1O [NCGC00373062, 2-(3-Hydroxy-4-methoxyphenyl)-8-(trifluoromethoxy)dibenzo[b,f][1,4]oxazepin-11(10H)-one], Efficacy −93.7. Against it:
- O=C1Nc2cc(OC(F)(F)F)ccc2Oc2ccc(-c3cccc(C(=O)N4CCOCC4)c3)cc21 [NCGC00356745, 2-(3-(Morpholine-4-carbonyl)phenyl)-8-(trifluoromethoxy)dibenzo[b,f][1,4]oxazepin-11(10H)-one] — lower, −98.3
- CN1C(=O)c2cc(-c3cccc(NS(C)(=O)=O)c3)ccc2Oc2ccc(OC(F)(F)F)cc21 [NCGC00384233] — higher, −75.1
- O=C1Nc2cc(OC(F)(F)F)ccc2Oc2ccc(-c3ccc(CN4CCNCC4)s3)cc21 [NCGC00388560, 2-(5-(Piperazin-1-ylmethyl)thiophen-2-yl)-8-(trifluoromethoxy)dibenzo[b,f][1,4]oxazepin-11(10H)-one] — lower, −95.0
- CN1C(=O)c2ccc(-c3cccc(N(C)S(C)(=O)=O)c3)cc2Oc2ccc(OC(F)(F)F)cc21 [NCGC00384267] — higher, −48.4
- O=C1Nc2cc(OC(F)(F)F)ccc2Oc2ccc(-c3cnn(C4COC4)c3)cc21 [NCGC00387298, 2-(1-(Oxetan-3-yl)-1H-pyrazol-4-yl)-8-(trifluoromethoxy)dibenzo[b,f][1,4]oxazepin-11(10H)-one] — lower, −93.8
- O=C1Nc2cc(OC(F)(F)F)ccc2Oc2ccc(CCCB(O)O)cc21 [NCGC00390142, (3-(11-Oxo-8-(trifluoromethoxy)-10,11-dihydrodibenzo[b,f][1,4]oxazepin-2-yl)propyl)boronic acid] — lower, −103.4
- N#CCn1cc(-c2ccc3c(c2)C(=O)Nc2cc(OC(F)(F)F)ccc2O3)cn1 [NCGC00388626, 2-(4-(11-Oxo-8-(trifluoromethoxy)-10,11-dihydrodibenzo[b,f][1,4]oxazepin-2-yl)-1H-pyrazol-1-yl)acetonitrile] — higher, −34.8
- O=C1Nc2cc(OC(F)(F)F)ccc2Oc2ccc(-c3ccnc4[nH]ccc34)cc21 [NCGC00373059, 2-(1H-Pyrrolo[2,3-b]pyridin-4-yl)-8-(trifluoromethoxy)dibenzo[b,f][1.4]oxazepin-11(10H)-one] — higher, −52.9
- CS(=O)(=O)Nc1cccc(-c2ccc3c(c2)CNc2cc(OC(F)(F)F)ccc2O3)c1 [NCGC00371644, N-(3-(8-(Trifluoromethoxy)-10,11-dihydrodibenzo[b,f][1,4]oxazepin-2-yl)phenyl)methanesulfonamide] — higher, −90.7
- COC(=O)c1ccc2c(c1)C(=O)Nc1cc(OC(F)(F)F)ccc1O2 [NCGC00387394] — higher, 0.0
- O=C1Nc2cc(OC(F)(F)F)ccc2Oc2ccc(-c3cnn(CCO)c3)cc21 [NCGC00387403, 2-(1-(2-Hydroxyethyl)-1H-pyrazol-4-yl)-8-(trifluoromethoxy)dibenzo[b,f][1,4]oxazepin-11(10H)-one] — higher, −37.6
- O=C1Nc2cc(OC(F)(F)F)ccc2Oc2ccc(-c3cccc(B(O)O)c3)cc21 [NCGC00415019, (3-(11-Oxo-8-(trifluoromethoxy)-10,11-dihydrodibenzo[b,j][1,4]oxazepin-2-v)phenyl)boronic acid] — higher, −79.0
- CS(=O)(=O)Nc1ccc(-c2ccc3c(c2)C(=O)Nc2cc(OC(F)(F)F)ccc2O3)cc1 [NCGC00356666, N-(4-(11-Oxo-8-(trifluoromethoxy)-10,11-dihydrodibenzo[b,f][1,4]oxazepin-2-yl)phenyl)methanesulfonamide] — higher, −79.9
- O=C1Nc2cc(OCC(F)(F)F)ccc2Oc2ccc(-c3ccnc(N4CCOCC4)c3)cc21 [NCGC00481504, 2-(2-Morpholinopyridin-4-yl)-8-(2,2,2-trifluoroethoxy)dibenzo[b,f][1,4]oxazepin-11(10H)-one] — higher, −85.1
- O=C1Nc2cc(OC(F)(F)F)ccc2Sc2ccc(-c3ccnc(N4CCOCC4)c3)cc21 [NCGC00482456, 2-(2-Morpholinopyridin-4-yl)-8-(trifluoromethoxy)dibenzo[b,f][1,4]thiazepin-11(10H)-one] — higher, −85.7
